Here are results for 5 compounds from the supplement of paper PMC11061612.

The subject of test [1] is 5637 (Bladder Carcinoma). Kind of test: combination Emax (second highest fraction inhibited in the dose matrix, 72 h); higher = more inhibition; extreme values may be limits of the assay. A digest of the protocol:
(§1)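 Cell lines in DMEM/F12 or RPMI with 10% FBS were plated in 1536-well plates, held 24 hours at 37°C, 5% CO2, then given two-drug dose matrices for 72 hours (DMSO typically 0.2%). Viability was read by CellTiter-Glo 2.0 luminescence and scaled as inhibition from 0 (vehicle wells) to 1 (blank wells). Combination Emax is the second-highest inhibition in the matrix; Bliss excess is observed combination effect minus expected EA + EB − EA·EB, EA and EB being single-agent effects.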

Test [2] has as its system ESO26 (Esophageal Adenocarcinoma). The test is described as above. A digest of the protocol:
as §1

In test [3] the test system is NCI-H716 (Colorectal Carcinoma). The test is described as above. In short, it runs like this: as §1
Test [4] relates to CA46 (Burkitt's Lymphoma). Described as above. A digest of the protocol:
as §1

In test [5] the test system is OACp4C (Esophageal Adenocarcinoma). The description is as above. In short, it runs like this: as §1
For test [6], the system named is GCT (Other Solid Carcinomas). The test is described as above. A digest of the protocol:
as §1

Test [7] has as its system Jurkat (T-Lymphoblastic Leukemia). The test is described as above. A digest of the protocol: as §1
Test [8] relates to NCI-H2228 (Lung Adenocarcinoma). Described as above. A digest of the protocol: as §1
The subject of test [9] is HT55 (Colorectal Carcinoma). The test is described as above. In short, it runs like this: as §1
Test [10] relates to JIMT-1 (Breast Carcinoma). The test is described as above. In short, it runs like this: as §1
The test system of test [11] is HCC1428 (Breast Carcinoma). Described as above. A digest of the protocol:
as §1

Test [12] has as its system NB13 (Neuroblastoma). The test is described as above. In short, it runs like this:
as §1

Test [13] has as its system KYSE-140 (Esophageal Squamous Cell Carcinoma). The test is described as above. A digest of the protocol:
as §1

Test [14] deals with 769-P (Kidney Carcinoma). Description: Bliss excess, mean over the matrix (fraction); higher = more synergy. A digest of the protocol:
as §1

Test [15] deals with IM-9 (Non-Cancerous). The description is as above. In short, it runs like this: as §1
The subject of test [16] is LU-165 (Small Cell Lung Carcinoma). The test is described as above. In short, it runs like this: as §1
The subject of test [17] is SK-HEP-1 (Hepatocellular Carcinoma). The description is as above. In short, it runs like this: as §1
Test [18] concerns CGTH-W-1 (Thyroid Gland Carcinoma). The description is as above. In short, it runs like this:
as §1

Test [19] relates to MDA-MB-436 (Breast Carcinoma). The description is as above. A digest of the protocol: as §1
The subject of test [20] is A2780 (Ovarian Carcinoma). The description is as above. A digest of the protocol:
as §1
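Wherever Bliss excess, mean over the matrix is given: after 72 h of two-drug dosing.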

As for `CN(CCO)CC[C@H](CSc1ccccc1)Nc1ccc(S(=O)(=O)NC(=O)c2ccc(N3CCC([C@@H](O)c4ccccc4-c4ccc(Cl)cc4)CC3)cc2)cc1S(=O)(=O)C(F)(F)F` [AZD4320] + C1CN(CCC1(C(=O)N[C@@H](CCO)C2=CC=C(C=C2)Cl)N)C3=NC=NC4=C3C=CN4 [Capivasertib] (first compound max 1 µM, 7x7, partner max 3 µM), the “combination Emax” value in [1] worked out at 0.328; in test [2], 0.345; in [3] it was 0.393; in [4], 0.251; in [5], 0.954; in [6], 0.449. Moreover, the “combination Emax” value in test [7] was determined as 0.883; in [8], 0.329; in [9], 0.292; in test [10], 0.2; in test [11] it was 0.446; in test [12] it was 1. In addition, the “combination Emax” value in test [13] worked out at 0.664. The Bliss excess in [14] was -0.0478; in test [15] it was -0.0399; in test [16], -0.042; in test [17], -0.0545; in [18] it was -0.0436; in test [19], -0.0329. For the same compound, the Bliss excess in test [20] is -0.0734.
On to `CN(CCO)CC[C@H](CSc1ccccc1)Nc1ccc(S(=O)(=O)NC(=O)c2ccc(N3CCC([C@@H](O)c4ccccc4-c4ccc(Cl)cc4)CC3)cc2)cc1S(=O)(=O)C(F)(F)F` [AZD4320] + C=CCn1c(=O)c2cnc(Nc3ccc(N4CCN(C)CC4)cc3)nc2n1-c1cccc(C(C)(C)O)n1 [AZD1775] (first compound max 1 µM, partner max 1 µM), for which the “combination Emax” value in test [1] is 0.979; in test [2] it was 0.709; in [3], 0.449; in [4] it was 0.667; in test [5], 0.938; in [6], 0.481. The “combination Emax” value in test [7] amounted to 0.993; in test [8] it was 0.512; in [9], 0.899; in test [10] it was 0.842; in test [11], 0.505; in [12], 1. Besides, the “combination Emax” value in [13] was found to be 0.849. The Bliss excess in test [14] was -0.0025; in test [15] it was 0.0638; in test [16] it was 0.0775; in test [17], -0.0191; in test [18] it was -0.035; in [19], -0.0404. For the same compound, the Bliss excess in [20] stood at 0.0284.
Consider `CN(CCO)CC[C@H](CSc1ccccc1)Nc1ccc(S(=O)(=O)NC(=O)c2ccc(N3CCC([C@@H](O)c4ccccc4-c4ccc(Cl)cc4)CC3)cc2)cc1S(=O)(=O)C(F)(F)F` [AZD4320] + CC(=O)O[C@H]1C(=O)[C@@]2(C)[C@H]([C@H](OC(=O)c3ccccc3)[C@]3(O)C[C@H](OC(=O)[C@H](O)[C@@H](NC(=O)c4ccccc4)c4ccccc4)C(C)=C1C3(C)C)[C@]1(OC(C)=O)CO[C@@H]1C[C@@H]2O [Paclitaxel] (first compound max 1 µM, 7x7, partner max 3 µM), for which the Bliss excess is -0.0444 in test [14]; 0.0239 in [15]; 0.137 in test [16]; 0.0236 in [17]; 0.277 in test [18]; 0.0892 in test [19]. For the same compound, the Bliss excess in [20] is -0.0362.
On to `CN(CCO)CC[C@H](CSc1ccccc1)Nc1ccc(S(=O)(=O)NC(=O)c2ccc(N3CCC([C@@H](O)c4ccccc4-c4ccc(Cl)cc4)CC3)cc2)cc1S(=O)(=O)C(F)(F)F` [AZD4320] + CCN(CCO)CCCOc1ccc2c(Nc3cc(CC(=O)Nc4cccc(F)c4)[nH]n3)ncnc2c1 [AZD2811] (first compound max 1 µM, 7x7, partner max 1 µM), for which the “combination Emax” value worked out at 0.898 in test [1]; 0.112 in test [2]; 0.298 in test [3]; 0.356 in [4]; 0.863 in test [5]; 0.239 in test [6]. For the same compound, the “combination Emax” value in test [7] was determined as 0.512; in test [8], 0.271; in [9] it was 0.376; in [10], 0.319; in test [11], 0.754; in test [12] it was 1. The “combination Emax” value in test [13] is 0.334. Also, the Bliss excess is 0.0052 in test [14]; -0.0509 in [15]; -0.0081 in test [16]; 0.0932 in [17]; -0.0619 in test [19]; -0.0048 in test [20].
For the compound `CN(CCO)CC[C@H](CSc1ccccc1)Nc1ccc(S(=O)(=O)NC(=O)c2ccc(N3CCC([C@@H](O)c4ccccc4-c4ccc(Cl)cc4)CC3)cc2)cc1S(=O)(=O)C(F)(F)F` [AZD4320] + C[C@@H]1COCCN1C2=NC(=NC(=C2)C3(CC3)[S@](=N)(=O)C)C4=C5C=CNC5=NC=C4 [AZD6738] (first compound max 1 µM, 7x7, partner max 10 µM), the “combination Emax” value in test [1] turned out to be 0.91; in test [2], 0.628; in test [3], 0.647; in test [4] it was 0.362; in [5], 0.95; in test [6], 0.304. For the same compound, the “combination Emax” value in test [7] was determined as 0.955; in test [8], 0.466; in test [9], 0.707; in test [10], 0.871; in test [11], 0.708; in test [12] it was 1. The “combination Emax” value in test [13] turned out to be 0.878. Moreover, the Bliss excess in test [14] was -0.0167; in [15], 0.0007; in [16] it was -0.0344; in [17], -0.0723; in test [18], -0.0342; in test [19] it was -0.0121. In [20], the Bliss excess was -0.0402.
